Source: ChEMBL document CHEMBL1201862, “PubChem BioAssay data set” (2004)
The source made the active and inactive calls.

Columns and labels:
[1] = HEK-293T cell viability reduction – luminescence, B-cell screen hits, cytotoxicity control for BCR NF-kB inhibitor project, dose response (AID 489021); assay type: functional, cell-based;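 also: HEK-293T cells carrying an NF-kB luciferase reporter; cells exposed to compound for about 14 hours before viability readout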
Cytochrome P450 2D6 = Cytochrome P450 2D6 (Homo sapiens, UniProt P10635);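 also: CYP2D6 member of a cytochrome P450 panel assay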
[2] = A cytotoxicity screen of small molecule inhibitors of the PhoP region in Salmonella typhi identified in the primary screen. [Related pubchem assays: 1850, 1864, 1985 ]; assay type: functional
[3] = target: T1, Heat shock factor protein 1 (Mus musculus, UniProt P38532); assay: enhancement of HSF1-driven luciferase signal – cell-based, NIH3T3, luminescence, dose retest, confirmation (AID 435004); assay type: functional;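 also: stress induced by proteasome inhibitor MG132 added 30 min after compound; luciferase reporter driven by HSF1 response element in NIH3T3 cells; actives raise luminescence as potentiators of the MG132 stress response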
T1 sequence (P38532 whole entry): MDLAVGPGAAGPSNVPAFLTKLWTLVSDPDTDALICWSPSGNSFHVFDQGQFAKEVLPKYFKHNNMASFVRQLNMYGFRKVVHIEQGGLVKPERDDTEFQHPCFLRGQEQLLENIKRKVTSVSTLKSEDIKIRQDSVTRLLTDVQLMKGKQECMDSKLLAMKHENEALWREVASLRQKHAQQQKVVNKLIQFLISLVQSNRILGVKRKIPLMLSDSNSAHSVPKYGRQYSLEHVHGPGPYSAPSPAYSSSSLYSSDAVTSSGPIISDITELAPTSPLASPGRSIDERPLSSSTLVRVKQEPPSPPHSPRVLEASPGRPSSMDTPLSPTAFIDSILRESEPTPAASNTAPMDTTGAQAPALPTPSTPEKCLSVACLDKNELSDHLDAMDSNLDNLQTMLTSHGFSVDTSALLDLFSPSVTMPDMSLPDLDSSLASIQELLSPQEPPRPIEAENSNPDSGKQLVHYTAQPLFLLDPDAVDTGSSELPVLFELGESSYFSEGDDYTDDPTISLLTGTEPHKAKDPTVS

[4] = HPDE-C7 pancreatic duct cell viability loss – fluorescence, HTS (AID 430); assay type: functional, cell-based; details: Homo sapiens
[5] = viability loss of HPDE-C7K cells – cell-based, fluorescence, HTS, primary screen (AID 431); assay type: functional; details: Homo sapiens
H9c2 = assay: cells; assay type: functional, cell-based; details: Rattus norvegicus, H9c2, Myocardium;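 also: confirmatory concentration-response retest of ultra-high-throughput screening hits for modulation of myocardial damage; cell death induced by hydrogen peroxide oxidative stress; compound pretreatment for 60 min then peroxide exposure for 2 h; potency is for protecting the cells against peroxide damage rather than for killing them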
Estrogen receptor = target: T2, Estrogen receptor (Homo sapiens, UniProt P03372);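 also: potency for inhibiting coactivator peptide recruitment to the receptor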
T2 sequence (P03372 whole entry): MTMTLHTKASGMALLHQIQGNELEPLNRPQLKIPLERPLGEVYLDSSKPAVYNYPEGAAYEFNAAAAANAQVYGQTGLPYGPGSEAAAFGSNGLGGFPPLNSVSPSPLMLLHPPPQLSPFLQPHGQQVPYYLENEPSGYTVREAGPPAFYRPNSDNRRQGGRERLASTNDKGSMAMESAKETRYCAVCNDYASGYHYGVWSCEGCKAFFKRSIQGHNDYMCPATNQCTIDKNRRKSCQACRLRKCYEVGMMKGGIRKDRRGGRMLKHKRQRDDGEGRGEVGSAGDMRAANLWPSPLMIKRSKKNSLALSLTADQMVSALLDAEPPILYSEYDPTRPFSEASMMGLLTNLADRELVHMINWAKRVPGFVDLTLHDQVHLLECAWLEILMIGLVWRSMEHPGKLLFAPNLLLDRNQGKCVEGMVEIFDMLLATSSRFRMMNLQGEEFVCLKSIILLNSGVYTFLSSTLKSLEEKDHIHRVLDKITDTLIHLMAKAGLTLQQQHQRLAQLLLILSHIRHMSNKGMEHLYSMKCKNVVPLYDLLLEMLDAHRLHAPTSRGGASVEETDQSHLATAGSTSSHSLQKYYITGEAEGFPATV

[6] = target: T3, Endoribonuclease toxin MazF (Escherichia coli K-12, UniProt P0AE70); assay: activation of MazEF endoribonuclease cleavage – biochemical, fluorescence, single-stranded RNA substrate, uHTS hits, dose response (AID 588481); assay type: functional
T3 sequence (P0AE70 whole entry): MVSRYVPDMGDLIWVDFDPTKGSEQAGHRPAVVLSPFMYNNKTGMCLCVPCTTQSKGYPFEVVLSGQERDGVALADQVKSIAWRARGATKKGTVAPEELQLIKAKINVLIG

[7] = target: T3, Endoribonuclease toxin MazF; assay: substrate-only fluorescence increase artefacts – biochemical, single-stranded RNase substrate, counter-screen for MazEF activator project, dose response (AID 588502); assay type: functional
INS1 = assay: INS-1E survival protection against cytokine death – cell-based, luminescence, retest, dose response (AID 449756); assay type: functional; details: Rattus norvegicus;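 also: cell death triggered by IL-1 beta plus TNF-alpha plus IFN-gamma mixture; protective hits raise ATP signal compared with cytokine alone wells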
[8] = target: T4, Short transient receptor potential channel 4 (Mus musculus, UniProt Q9QUQ5); assay: calcium entry via TRPC4 opening agents – cell-based, HEK293 TRPC4/mu-opioid, Fluo-4 calcium, dose response (AID 434937); assay type: functional
T4 sequence (Q9QUQ5 whole entry): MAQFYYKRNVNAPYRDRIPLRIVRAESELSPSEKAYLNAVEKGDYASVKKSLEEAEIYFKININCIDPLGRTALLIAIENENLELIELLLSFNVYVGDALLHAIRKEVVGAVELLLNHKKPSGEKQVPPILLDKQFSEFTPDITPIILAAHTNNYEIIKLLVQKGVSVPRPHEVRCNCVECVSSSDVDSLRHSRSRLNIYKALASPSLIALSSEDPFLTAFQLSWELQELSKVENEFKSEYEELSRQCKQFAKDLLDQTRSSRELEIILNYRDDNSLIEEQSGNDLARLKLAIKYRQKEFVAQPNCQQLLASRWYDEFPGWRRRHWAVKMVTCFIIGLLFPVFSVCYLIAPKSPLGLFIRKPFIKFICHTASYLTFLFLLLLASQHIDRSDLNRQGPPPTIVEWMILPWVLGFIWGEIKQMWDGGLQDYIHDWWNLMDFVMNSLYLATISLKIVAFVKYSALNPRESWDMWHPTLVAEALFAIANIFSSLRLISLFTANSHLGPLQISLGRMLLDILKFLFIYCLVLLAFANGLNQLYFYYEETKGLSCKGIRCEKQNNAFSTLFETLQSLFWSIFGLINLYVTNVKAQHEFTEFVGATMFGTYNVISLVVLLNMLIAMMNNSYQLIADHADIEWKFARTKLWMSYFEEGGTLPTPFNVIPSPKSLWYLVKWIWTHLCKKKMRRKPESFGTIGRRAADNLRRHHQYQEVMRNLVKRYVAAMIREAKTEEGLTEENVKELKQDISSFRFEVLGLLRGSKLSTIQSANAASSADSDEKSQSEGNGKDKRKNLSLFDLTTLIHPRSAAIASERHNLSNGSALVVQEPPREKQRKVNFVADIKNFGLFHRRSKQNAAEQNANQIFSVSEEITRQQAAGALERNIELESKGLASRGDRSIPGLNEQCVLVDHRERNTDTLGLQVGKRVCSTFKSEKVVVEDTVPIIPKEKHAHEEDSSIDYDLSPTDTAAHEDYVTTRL

[9] = OVCAR-3 cell viability loss – plate reader, dry powder samples, PAX8 inhibitor project, dose response (AID 743044); assay type: functional, cell-based
Paired box protein Pax-8 = Paired box protein Pax-8 (Homo sapiens, UniProt Q06710); assay: PAX8 transcriptional activity inhibition in RMG-I – RMG-I cells, luciferase, cherry-pick, dose response (AID 687027); assay type: functional, cell-based;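 also: luciferase reporter driven by Pax8 target thyroperoxidase promoter measured by SteadyGlo luminescence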
[10] = growth inhibition of yeast DHODH-expressing 3D7 parasites – SYBR Green, dry powder samples, dose response (AID 1159570); assay type: functional, cell-based;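 also: parasite growth measured after 72 hours of compound exposure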
[11] = toxicity to human HepG2 hepatoma cells – cell-based, plate reader, dry powder samples, cytotoxicity control, dose response (AID 1159569); assay type: functional;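 also: inhibitor potency with signal falling toward the positive control level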
[12] = Dd2 malaria parasite growth inhibition potency – SYBR Green, dry powder samples, dose response (AID 1159566); assay type: functional, cell-based;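 also: potency for growth inhibition with lower SYBR green DNA signal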
[13] = P. falciparum Dd2 growth inhibitors, dose response, SYBR Green, cherry-picked samples (AID 1159567); assay type: functional, cell-based
[14] = growth inhibition of PfATP4-mutant resistant parasites – NITD609-resistant line, SYBR Green, dry powder, dose response (AID 1159571); assay type: functional, cell-based;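 also: parasites synchronized at ring stage by sorbitol before testing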
[15] = tested on: Streptococcus sp. 'group A'; assay: Streptococcus pyogenes SK(-)GAS viability under kanamycin – luminescence, BacTiterGlo, confirmation, counter-screen for streptokinase expression inhibitor project, dose response (AID 1900); assay type: functional, organism-based
Streptococcus = assay: GAS UMAA2166 growth inhibition – luminescence, BacTiterGlo, counter-screen for streptokinase expression inhibitor project, dose response (AID 1915); assay type: functional, organism-based;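 also: potency for reduction of bacterial viability or growth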
Cytochrome P450 3A4 = Cytochrome P450 3A4 (Homo sapiens, UniProt P08684); details: Potency;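 also: confirmatory qHTS run detecting inhibitors and substrates of CYP3A4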
Chain of Cytochrome P450 3A4 (P08684 whole entry): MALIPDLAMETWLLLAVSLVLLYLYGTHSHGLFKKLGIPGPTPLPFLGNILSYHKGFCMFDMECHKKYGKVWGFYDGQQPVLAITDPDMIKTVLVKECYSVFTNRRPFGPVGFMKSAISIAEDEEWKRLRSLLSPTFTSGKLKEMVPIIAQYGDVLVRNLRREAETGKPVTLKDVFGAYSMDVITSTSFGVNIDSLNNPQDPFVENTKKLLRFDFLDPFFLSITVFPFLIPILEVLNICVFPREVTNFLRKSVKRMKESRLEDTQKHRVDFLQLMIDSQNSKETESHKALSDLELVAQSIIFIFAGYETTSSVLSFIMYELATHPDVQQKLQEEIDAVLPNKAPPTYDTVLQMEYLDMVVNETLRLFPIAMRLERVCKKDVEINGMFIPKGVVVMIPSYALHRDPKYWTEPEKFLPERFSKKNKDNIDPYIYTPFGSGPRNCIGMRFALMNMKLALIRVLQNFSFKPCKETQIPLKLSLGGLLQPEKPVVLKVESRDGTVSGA

Chain of Paired box protein Pax-8 (Q06710 whole entry): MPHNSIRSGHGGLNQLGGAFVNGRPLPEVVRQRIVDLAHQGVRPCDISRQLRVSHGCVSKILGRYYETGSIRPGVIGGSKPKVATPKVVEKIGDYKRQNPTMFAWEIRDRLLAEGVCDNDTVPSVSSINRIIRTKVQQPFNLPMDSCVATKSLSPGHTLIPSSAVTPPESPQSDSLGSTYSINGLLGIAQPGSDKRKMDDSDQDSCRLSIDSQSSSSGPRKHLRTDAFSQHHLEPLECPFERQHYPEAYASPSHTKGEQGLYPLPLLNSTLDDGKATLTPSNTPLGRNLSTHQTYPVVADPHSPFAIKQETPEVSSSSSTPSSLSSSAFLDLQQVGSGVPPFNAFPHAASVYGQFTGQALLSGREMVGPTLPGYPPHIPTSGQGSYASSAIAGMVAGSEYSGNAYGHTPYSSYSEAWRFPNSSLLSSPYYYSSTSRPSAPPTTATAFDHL
Chain of Cytochrome P450 2D6 (P10635 whole entry): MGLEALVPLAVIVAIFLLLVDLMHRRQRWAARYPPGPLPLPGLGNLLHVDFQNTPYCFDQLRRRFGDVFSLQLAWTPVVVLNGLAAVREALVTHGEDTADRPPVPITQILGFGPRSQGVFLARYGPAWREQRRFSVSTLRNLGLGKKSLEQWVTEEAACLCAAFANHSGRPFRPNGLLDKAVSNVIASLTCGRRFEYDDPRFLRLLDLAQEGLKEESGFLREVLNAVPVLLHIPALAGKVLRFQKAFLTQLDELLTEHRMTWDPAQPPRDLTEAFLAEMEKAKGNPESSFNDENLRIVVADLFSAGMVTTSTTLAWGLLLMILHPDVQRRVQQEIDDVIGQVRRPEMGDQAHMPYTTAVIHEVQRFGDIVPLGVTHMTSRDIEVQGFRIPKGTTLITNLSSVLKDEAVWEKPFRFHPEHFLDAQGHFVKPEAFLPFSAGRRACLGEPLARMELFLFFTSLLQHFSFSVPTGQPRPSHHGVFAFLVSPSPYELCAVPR

CC(C)(C)c1ccc(-c2nnc(SCC(=O)NC3CC3)o2)cc1
IC50 [1]: > 80 µM (inactive)

COc1ccc(CCN(C(=O)C(F)(F)F)C(C(=O)NC2CCCC2)c2cccs2)cc1 (configuration not stated)
AC50 (Cytochrome P450 2D6): 25.1 µM (inconclusive)
EC50 [2]: > 50 µM (active)

O=C(Oc1cccc2cccnc12)c1ccc(Br)o1
EC50 [3]: > 260 µM (inactive)
EC50 [4]: 13.9 µM (active)
EC50 [5]: > 20 µM (not active)

COc1nnc(-c2ccc(C)c(S(=O)(=O)NCCO)c2)c2ccccc12
IC50 (H9c2): > 79 µM (inactive)
IC50 (Estrogen receptor): > 50 µM (not active)

COc1cccc(-c2nc(NCc3ccco3)c3ccccc3n2)c1O
EC50 [4]: > 20 µM (not active)
EC50 [5]: 1.11 µM (active)

Cc1ccc(C2=CC(c3ccc(N(C)C)cc3)n3nnnc3N2)cc1 (configuration not stated)
EC50 [4]: 0.09 µM (active)
EC50 [5]: 0.21 µM (active)
EC50 [6]: > 99 µM (inactive)
EC50 [7]: > 99 µM (inactive)
AC50 (INS1): 6.88 µM (active)

COc1ccc(C(=O)C2CCCN(Cc3ccc(Sc4nncn4C)o3)C2)cc1F (configuration not stated)
EC50 [8]: 3.35 µM (active)

C[C@@H]1CCCCO[C@@H](CN(C)Cc2ccc(Cl)c(Cl)c2)[C@H](C)CN([C@@H](C)CO)C(=O)c2cc(NC(=O)Nc3ccc(C(F)(F)F)cc3)ccc2O1
AC50 [9]: 29.6 µM (active)
AC50 (Paired box protein Pax-8): 5.08 µM (active)

C[C@@H]1CCCCO[C@@H](CN(C)S(=O)(=O)c2ccc(Cl)cc2)[C@H](C)CN([C@@H](C)CO)C(=O)c2cc(N(C)C)ccc2O1
AC50 [9]: 28.3 µM (active)
AC50 (Paired box protein Pax-8): 3.28 µM (active)

C[C@H](CO)N1C[C@H](C)[C@@H](CN(C)C(=O)C2CCCCC2)Oc2ncc(/C=C/c3ccccc3)cc2C1=O
AC50 [10]: 0.608 µM (active)
AC50 [11]: 50.2 µM (active)
AC50 [12]: 0.35 µM (active)
AC50 [13]: 0.658 µM (active)
AC50 [14]: 0.451 µM (active)

C[C@H]1CN([C@@H](C)CO)C(=O)c2c(c3ccccc3n2C)-c2ccccc2CO[C@H]1CN(C)C(=O)c1cc(Cl)cc(Cl)c1
AC50 [10]: 2.36 µM (active)
AC50 [11]: 27.8 µM (active)
AC50 [12]: 1.48 µM (active)
AC50 [13]: 2.14 µM (active)
AC50 [14]: 1.58 µM (active)

COc1ccc(C#Cc2ccc3c(c2)[C@H]2[C@H](CCN2Cc2ccncc2)[C@H](CO)N3)cc1
AC50 [10]: 1.18 µM (active)
AC50 [11]: 65.7 µM (active)
AC50 [12]: 0.922 µM (active)
AC50 [13]: 1.19 µM (active)
AC50 [14]: 1.11 µM (active)

C=C(C)[C@@H]1CC[C@]2(C(=O)O)CC[C@]3(C)[C@H](CC[C@@H]4[C@@]5(C)CCC(=O)C(C)(C)[C@@H]5CC[C@]43C)[C@@H]12 [BETUNOLIC ACID]
EC50 [15]: 1.68 µM (active)
EC50 (Streptococcus): 2.88 µM (active)
IC50 [1]: > 80 µM (inactive)

COc1cc(-c2cc(=O)c3c(O)c(OC)c(OC)c(OC)c3o2)cc(OC)c1OC [GARDENIN]
AC50 (Cytochrome P450 3A4): 3.16 µM (inconclusive)
IC50 [1]: > 80 µM (inactive)

CCOc1ccc2ccccc2c1C(=O)N[C@@H]1C(=O)N2[C@@H]1SC(C)(C)[C@@H]2C(=O)O [NAFCILLIN SODIUM]
EC50 [2]: > 50 µM (active)
IC50 (H9c2): > 79 µM (inactive)
